Consider 35 molecules from patent US10028961B2, “Therapeutically active compounds and their methods of use” (AGIOS PHARMACEUTICALS, INC., priority 2013, dated 2018).

Bounds are passed on as bounds.

In test [1] the target is IDH2 R140Q (Homo sapiens (Human), UniProt P48735, R140Q). Nature of the test: In vitro assay for IDH2m R140Q inhibitors, cofactor depletion assay. Type of test: biochemical. Particulars: IDH2 R140Q enzyme. Summed up:
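Remaining cofactor measured fluorimetrically: diaphorase/resazurin Stop Mix […], halting the reaction. Before that, mutant enzyme and compound sat 1 h at RT, then substrate mix (4 μM NADPH, 1.6 mM α-KG) was added for 16 h at RT.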

Test [2] deals with IDH1 wt/IDH1 R132H heterodimer (Homo sapiens (Human), UniProt O75874, R132H). Nature of the test: In vitro assay for IDH1m R132H inhibitors, IDH1 wt/IDH1 R132H heterodimer, NADPH depletion (diaphorase/resazurin). Type of test: biochemical. The following applies: IDH1 wt/R132H heterodimer, NADPH/NADP, not saturated; read-out: IDH1 wt/R132H NADPH/NADP IC50 not saturated. Summed up: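 Purified IDH1wt-his/IDH1R132H-flag heterodimer (sf9 co-expression) pre-incubated 1 hr at room temperature with compound and NADPH before α-KG addition. Remaining NADPH read by diaphorase/resazurin conversion to fluorescent resorufin, 5 min at 25° C. Compounds diluted 1:50 from DMSO; IC50 determined.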

Test [3] addresses IDH1-R132 homodimer enzyme (R132H) (Homo sapiens (Human), UniProt O75874, R132H). Put plainly: In vitro assay IDH1-R132H homodimer, NADPH depletion assay. Type of test: biochemical. As to the method: (§1) The following describes the experimental procedures that can be used to obtain data on columns 3 and 6 of Table 4.
(§2) A test compound is prepared as 10 mM stock in DMSO and diluted to 50× final concentration in DMSO, for a 50 μl reaction mixture. IDH enzyme activity converting alpha-ketoglutarate to 2-hydroxyglutaric acid is measured using a NADPH depletion assay. In the assay the remaining cofactor is measured at the end of the reaction with the addition of a catalytic excess of diaphorase and resazurin, to generate a fluorescent signal in proportion to the amount of NADPH remaining. […] The reaction is started with the addition of 10 μl of Substrate Mix ([…], 5 mM alpha-ketoglutarate, in Assay Buffer) and the mixture is incubated for 90 minutes at room temperature.

Test [4] concerns the target IDH1 R132C (Homo sapiens (Human), UniProt O75874, R132C). Nature of the test: In vitro assay IDH1 R132C homodimer, NADPH depletion assay. Type of test: biochemical. As to the method: as §1, §2
The concentration of NADPH and alpha-ketoglutarate in the Substrate Buffer is 20 μM and 1 mM, respectively.

Test [5] relates to U87MG pLVX-IDH2 R140Q-neo cells. Nature of the test: U87MG pLVX-IDH2 R140Q-neo cell based assay, 2-HG by LC-MS. The following applies: Homo sapiens, U-87 MG.
Test [6] has as its system HT1080 cells. Nature of the test: Cellular assay for IDH1m R132C inhibitors, 2-HG by LC-MS in HT1080 cells. Type of test: cell-based. The following applies: Homo sapiens, HT-1080. Summed up:
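HT1080 cells at 5000 cells/well were treated with compound (0.2% DMSO final). After 48 h, 2-HG in the medium was measured by LC-MS. Viability was read by CellTiter-Glo luminescence at 72 h.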

Test [7] addresses IDH1-R132H homodimer enzyme (Homo sapiens (Human), UniProt O75874, R132H). Put plainly: In vitro assay IDH1-R132H homodimer, NADPH depletion assay with NADPH/NADP preincubation. Type of test: biochemical. Particulars: 5 μM NADPH and 37.5 μM NADP. Summed up: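 Conversion of alpha-ketoglutarate to 2-hydroxyglutarate tracked by NADPH depletion. Reaction started with 5 mM alpha-ketoglutarate plus NADPH substrate mix (50 μl total), 60 min at room temperature. Leftover NADPH quantified via diaphorase/resazurin fluorescence.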

Chain of IDH2 R140Q (P48735 40-452 R140Q): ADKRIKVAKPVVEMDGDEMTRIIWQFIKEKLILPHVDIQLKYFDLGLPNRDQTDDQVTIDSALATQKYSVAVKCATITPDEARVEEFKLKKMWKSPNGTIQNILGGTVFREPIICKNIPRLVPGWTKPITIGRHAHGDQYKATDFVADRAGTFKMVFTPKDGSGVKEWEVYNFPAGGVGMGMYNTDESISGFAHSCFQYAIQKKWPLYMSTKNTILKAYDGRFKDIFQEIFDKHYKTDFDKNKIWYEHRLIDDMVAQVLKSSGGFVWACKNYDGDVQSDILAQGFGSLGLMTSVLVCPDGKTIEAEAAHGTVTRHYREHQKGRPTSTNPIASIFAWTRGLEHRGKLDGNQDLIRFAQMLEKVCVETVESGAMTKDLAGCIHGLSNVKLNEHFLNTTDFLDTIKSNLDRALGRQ
Chain of IDH1 R132C (O75874 whole entry R132C): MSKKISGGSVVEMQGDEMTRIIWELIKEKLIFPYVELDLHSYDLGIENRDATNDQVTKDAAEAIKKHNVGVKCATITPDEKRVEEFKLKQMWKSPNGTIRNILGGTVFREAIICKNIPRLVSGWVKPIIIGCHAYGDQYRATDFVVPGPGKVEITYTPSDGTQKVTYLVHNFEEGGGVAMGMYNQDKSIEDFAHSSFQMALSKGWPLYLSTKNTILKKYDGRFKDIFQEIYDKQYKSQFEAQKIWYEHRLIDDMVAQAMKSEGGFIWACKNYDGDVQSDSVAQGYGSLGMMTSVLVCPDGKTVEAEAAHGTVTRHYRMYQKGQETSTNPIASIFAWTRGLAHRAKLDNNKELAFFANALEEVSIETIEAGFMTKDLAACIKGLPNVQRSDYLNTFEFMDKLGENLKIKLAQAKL
Chain of IDH1-R132 homodimer enzyme (R132H) (O75874 whole entry R132H): as the sequence (O75874 whole entry R132C) above, with C132H counted along it
Chain of IDH1 wt/IDH1 R132H heterodimer (O75874 whole entry R132H): as the sequence (O75874 whole entry R132C) above, with C132H counted along it
Chain of IDH1 wt/IDH1 R132H heterodimer (O75874 whole entry, stated change not applied): as the sequence (O75874 whole entry R132C) above, with C132R counted along it
Chain of IDH1-R132H homodimer enzyme (O75874 whole entry R132H): as the sequence (O75874 whole entry R132C) above, with C132H counted along it

Regarding `CC(Nc1nc(N[C@H](C)C2CC2)nc(-c2cccc(C(F)(F)F)n2)n1)c1ccccc1` (single isomer, unassigned) [Compound 20], the IC50 in test [1] is < 50 nM; in test [2], < 50 nM; in test [3] it was 50 to 100 nM; in test [4] it was 50 to 100 nM.

On to `C[C@@H](Nc1nc(NCC(C)(C)O)nc(-c2cccc(C(F)(F)F)n2)n1)C1CC1` (stereo in doubt) [Compound 10, 1-(4-(1-cyclopropylethylamino)-6-(6-(trifluoromethyl)pyridin-2-yl)-1,3,5-triazin-2-ylamino)-2-methylpropan-2-ol], for which the IC50 in test [1] is 50 to 100 nM; in test [3], > 1000 nM; in test [4], > 1000 nM.

Take `FC(F)(F)c1cccc(-c2nc(NCC3CC3)nc(NCC3CC3)n2)n1` [Compound 1]: the IC50 in test [1] is < 50 nM; in test [3] it was > 1000 nM; in test [5], < 50 nM; in test [4], > 1000 nM.

Regarding `CC(C)(C)Nc1nc(NC(C)(C)C)nc(-c2cccc(C(F)(F)F)n2)n1` [Compound 4], the IC50 in test [1] was < 50 nM; in test [6], 50 to 100 nM; in test [3], 50 to 100 nM; in test [4], 50 to 100 nM.

Take `FC(F)(F)c1cccc(-c2nc(NCC3CCC3)nc(NCC3CCC3)n2)n1` [Compound 7]: the IC50 in test [1] was < 50 nM; in test [3] it was 100 to 1000 nM; in test [4], > 1000 nM.

On to `COc1ccc(F)c(-c2nc(N[C@H](C)C3CC3)nc(N[C@H](C)C3CC3)n2)c1` [Compound 8], for which the results for the IC50 in test [1] and in test [4] were 50 to 100 nM and > 1000 nM, respectively. Further, the “IDH1 R132H IC50” value in test [3] was “No Fit”.

As for `FC(F)(F)c1cccc(-c2nc(NC3CCC3)nc(NC3CCC3)n2)n1` [Compound 9], the IC50 in test [1] was < 50 nM; in test [3] it was 50 to 100 nM; in test [4], 100 to 1000 nM.

Consider `C[C@@H](Nc1nc(N[C@H](C)C2CC2)nc(-c2cccc(O)c2)n1)C1CC1` [Compound 11], for which the IC50 in test [1] was < 50 nM; in test [6] it was 50 to 100 nM; in test [3], 100 to 1000 nM; in test [4] it was 50 to 100 nM.

On to `CC(O)CNc1nc(N[C@H](C)C2CC2)nc(-c2cccc(C(F)(F)F)n2)n1` (stereo partly drawn) [Compound 12, 1-(4-((R)-1-cyclopropylethylamino)-6-(6-(trifluoromethyl)pyridin-2-yl)-1,3,5-triazin-2-ylamino)propan-2-ol], for which the IC50 is 50 to 100 nM in test [1], > 1000 nM in test [3] and > 1000 nM in test [4].

Turning to `CC(C)C(C)Nc1nc(NC(C)C(C)C)nc(-c2cccc(C(F)(F)F)n2)n1` (stereo not drawn) [Compound 13], the IC50 in test [6] is < 50 nM; in test [3] it was < 50 nM; in test [4], 50 to 100 nM.

In the case of `CC(O)CNc1nc(NCC(C)O)nc(-c2cccc(C(F)(F)F)n2)n1` (stereo not drawn) [Compound 14], the IC50 in test [1], in test [3] and in test [4] was > 1000 nM in each case.

In the case of `C[C@@H](Nc1nc(N[C@H](C)C2CC2)nc(-c2cccc(CO)c2)n1)C1CC1` [Compound 16], the IC50 in test [1] was < 50 nM; in test [3], > 1000 nM; in test [4], > 1000 nM.

As to `CC(C)[C@H](C)Nc1nc(N[C@@H](C)C(C)C)nc(-c2cccc(C(F)(F)F)n2)n1` [Compound 17], the IC50 in test [6] is < 50 nM; in test [3], 50 to 100 nM; in test [4], 50 to 100 nM.

`CC(C)[C@@H](C)Nc1nc(N[C@H](C)C(C)C)nc(-c2cccc(C(F)(F)F)n2)n1` [Compound 18]: the IC50 in test [6] is 50 to 100 nM; in test [3], < 50 nM; in test [4], 50 to 100 nM.

With `C[C@@H](Nc1nc(N[C@H](C)C2CCC2)nc(-c2cccc(C(F)(F)F)n2)n1)C1CCC1` [Compound 19], the IC50 in test [6], in test [3] and in test [4] was 50 to 100 nM in each case.

As to `C[C@@H](Nc1nc(NCc2ccccc2)nc(-c2cccc(C(F)(F)F)n2)n1)C1CC1` [Compound 21], the values for the IC50 in test [1], in test [3] and in test [4] were < 50 nM, > 1000 nM and > 1000 nM, respectively.

Take `C[C@@H](Nc1nc(N[C@H](C)C2CC2)nc(-c2cccc(C(F)(F)F)n2)n1)c1ccccc1` [Compound 22]: the IC50 in test [1] is < 50 nM; in test [3], 50 to 100 nM; in test [4], 100 to 1000 nM.

Take `C[C@H](Nc1nc(N[C@H](C)c2ccccc2)nc(-c2cccc(C(F)(F)F)n2)n1)c1ccccc1` [Compound 26]: the IC50 was < 50 nM in test [1], 100 to 1000 nM in test [3] and > 1000 nM in test [4].

In the case of `CC(Nc1nc(N[C@H](C)C2CC2)nc(-c2cccc(C(F)(F)F)n2)n1)c1cccc(F)c1` (stereo partly drawn) [Compound 28], the IC50 was < 50 nM in test [2], 50 to 100 nM in test [6], 50 to 100 nM in test [3] and 50 to 100 nM in test [4].

On to `C[C@@H](Nc1nc(NC2(c3ccccc3)CC2)nc(-c2cccc(C(F)(F)F)n2)n1)C1CC1` [Compound 30], for which the IC50 in test [1] lay in the range of 50 to 100 nM; in test [3] it was 50 to 100 nM; in test [4] it was 100 to 1000 nM.

In the case of `C[C@H](Nc1nc(N[C@@H](C)C2CC2)nc(-c2cccc(C(F)(F)F)n2)n1)C1CC1` [Compound 33], the IC50 in test [6] was < 50 nM; in test [3] it was < 50 nM; in test [4] it was 50 to 100 nM.

As to `C[C@H](Nc1nc(N[C@H](C)C2CC2)nc(-c2cccc(C(F)(F)F)n2)n1)C1CC1` [Compound 34], the figures for the IC50 in test [6], in test [3] and in test [4] were < 50 nM, < 50 nM and 50 to 100 nM, respectively.

`FC(F)(F)c1cccc(-c2nc(NC3CC4CC4C3)nc(NC3CC4CC4C3)n2)n1` (stereo not drawn) [Compound 36]: the IC50 in test [2] was < 50 nM; in test [3], < 50 nM; in test [4], 50 to 100 nM.

As to `CCCC(C)Nc1nc(N[C@H](C)C2CC2)nc(-c2cccc(C(F)(F)F)n2)n1` (stereo partly drawn) [Compound 39], the IC50 is 50 to 100 nM in test [6], < 50 nM in test [3] and 50 to 100 nM in test [4].

With `C[C@@H](Nc1nc(N[C@H]2CCC[C@H]2O)nc(-c2cccc(C(F)(F)F)n2)n1)C1CC1` [Compound 43], the IC50 in test [3] was 100 to 1000 nM; in test [4], > 1000 nM.

Consider `COCC(C)Nc1nc(N[C@H](C)C2CC2)nc(-c2cccc(C(F)(F)F)n2)n1` (stereo partly drawn) [Compound 44], for which the IC50 in test [3] was 100 to 1000 nM; in test [4], > 1000 nM.

On to `C[C@@H](Nc1nc(N[C@H](C)C2CC2)nc(-c2cccc(Cl)n2)n1)C1CC1` [Compound 45], for which the IC50 in test [3] was < 50 nM; in test [4], 50 to 100 nM.

`CCN(CC)c1nc(N[C@H](C)C2CC2)nc(-c2cccc(Cl)n2)n1` [Compound 46]: the IC50 in test [3] and in test [4] was > 1000 nM in each case.

Consider `C[C@@H](Nc1nc(N[C@H](C)C2CC2)nc(-c2cccc(C(F)(F)F)n2)n1)C(=O)O` [Compound 47], for which the IC50 in test [3] was > 1000 nM. In addition, the “IDH1 R132C IC50” value in test [4] is on record as “No Fit”.

For the molecule `C[C@@H](Nc1nc(N[C@H](C)C2CC2)nc(-c2cccc(C(F)(F)F)n2)n1)C(=O)N(C)C` [Compound 48], the IC50 in test [3] was > 1000 nM. Also, in test [4], the “IDH1 R132C IC50” value is recorded as “No Fit”.

`CC(C)(CO)Nc1nc(Nc2ccnc(C(C)(F)F)c2)nc(-c2cccc(C(F)(F)F)n2)n1` [Compound 49]: the IC50 in test [3] and in test [4] was > 1000 nM in each case.

On to `C[C@@H](Nc1nc(NC2CCC(F)(F)CC2)nc(-c2cccc(C(F)(F)F)n2)n1)C1CC1` [Compound 50], for which the IC50 in test [2] was < 50 nM; in test [3], < 50 nM; in test [4] it was 50 to 100 nM.

For `C[C@@H](Nc1nc(N[C@H](C)C2CC2)nc(-c2cccc(N3CCC3)n2)n1)C1CC1` [Compound 51], the IC50 in test [3] and in test [4] was > 1000 nM throughout.

As for `CC(C)CNc1nc(NC(C)(C)C#N)nc(-c2cc(O)ccc2F)n1` [Compound 86], the IC50 was 50 to 100 nM in test [2], > 1000 nM in test [3] and > 1000 nM in test [4].

`C[C@@H](Nc1cc(NC(C)(C)C)nc(-c2cccc(C(F)(F)F)n2)n1)C1CC1` [Compound 417]: the IC50 in test [3] is 100 to 1000 nM; in test [7] it was 100 to 1000 nM; in test [4] it was > 1000 nM.
